Data published in patent US11091483B2, “Protein kinase regulators” (Nanjing Gator Meditech Company, Ltd., priority 2016, dated 2021).
Like-named read-outs stand apart in the source and are kept apart here.

Columns and labels:
[1] = system: pAkt (phosphorylated form of Akt); assay: Western blots on A549 cells after 72 hours; conditions: western blot
Protocol: The following kinases were examined: Akt, pAkt, Mek1, Mek2, Erk2, pErk2 and c-Myc. In addition, Induced myeloid leukemia cell differentiation protein (Mcl-1) was also evaluated.

[2] = system: HCT116 (human colon cancer); assay: CCK-8 cell viability assay on HCT116 cells; format: cell-based; conditions: HCT-116, 48 h
Protocol: (§1) The plate is incubated for 48 hours.
(§2) CCK-8 solution is added directly to the cells.

[3] = system: MDA-MB-231 (MDA 231, human breast adenocarcinoma); assay: CCK-8 cell viability assay on MDA-MB-231 cells; format: cell-based
Protocol: as §1, §2

[4] = Pharmacokinetic properties in a mouse; conditions: for Oral Bioavailability (% F): i.v. 2 mg/kg and oral 10 mg/kg; for AUC(0-inf): plasma, po, 10 mg/kg
Protocol: (§3) Each compound was formulated and administered to a mouse. Blood was taken at specific time points (0.25 h, 0.5 h, 1 h, 2 h, 4 h, 8 h, and 24 h) and evaluated for the drug administered by LC/MS. Each compound was administered i.v. at 2 mg/kg and also evaluated by oral administration (gavage) at 10 mg/kg (Formulation: 5% DMSO+95% HP-β-CD (20%, W/V) yielding a solution). […] In addition, percent oral bioavailability or % F is a measure of the percent of the drug given orally that is in systemic circulation in the plasma.

in vivo = conditions: mouse, po, 10 mg/kg
Protocol: as §3

[5] = HCT116, 48 hours incubation, CCK-8, read-out: IC50 (uM, HCT116)
[6] = MDA-MB-231, 48 hours incubation, CCK-8, read-out: IC50 (uM, MDA 231)

SMILES	IC50 [2, 5]	IC50 [3, 6]	other results
O=C1C2=C(CCN(Cc3ccccc3)C2)N2CCN=C2N1Cc1ccc(C(F)(F)F)cc1 [Compound 2]	0.03 µM	0.05 µM	concentration providing similar reductions in pAkt [1]: 0.037 uM
Cc1cccc(CN2C(=O)C3=C(CCN(Cc4ccccc4)C3)N3C2=NC2CCCCC23)c1 (stereo not drawn) [Compound 5]	1.3 µM	0.069 µM	–
O=C1C2=C(CCN(Cc3ccccc3)C2)N2CCN=C2N1Cc1ccccc1C(F)(F)F [Compound 6]	1.4 µM	1.2 µM	–
O=C1C2=C(CCN(Cc3ccccc3)C2)N2CCN=C2N1Cc1cccc(C(F)(F)F)c1 [Compound 7]	0.24 µM	0.4 µM	–
Cc1ccccc1CN1C(=O)C2=C(CCN(Cc3ccccc3Br)C2)N2CCN=C12 [Compound 10]	> 25 µM	> 25 µM	–
Cc1ccccc1CN1C(=O)C2=C(CCN(Cc3cccc(Br)c3)C2)N2CCN=C12 [Compound 11]	0.72 µM	0.74 µM	–
O=C1C2=C(CCN(Cc3cccc(F)c3)C2)N2CCN=C2N1Cc1ccc(C(F)(F)F)cc1 [Compound 18]	0.022 µM	0.078 µM	Oral Bioavailability (% F) [4]: 27 % F; AUC(0-inf) [4]: 823 ng·h/mL
[2H]c1c([2H])c([2H])c(C([2H])([2H])N2CCC3=C(C2)C(=O)N(Cc2ccc(C(F)(F)F)cc2)C2=NCCN23)c([2H])c1[2H] [Compound 19]	0.089 µM	–	Oral Bioavailability (% F) [4]: 60 % F; AUC(0-inf) [4]: 604 ng·h/mL
O=C1C2=C(CCN(Cc3ccccc3)C2)N2CCN=C2N1Cc1ccc(OC(F)(F)F)cc1 [Compound 20]	0.37 µM	0.82 µM	–
O=C1C2=C(CCN(Cc3cccc(OC(F)(F)F)c3)C2)N2CCN=C2N1Cc1ccc(C(F)(F)F)cc1 [Compound 21]	0.37 µM	0.27 µM	–
O=C1C2=C(CCN(Cc3cccc(C(F)(F)F)c3)C2)N2CCN=C2N1Cc1ccc(C(F)(F)F)cc1 [Compound 24]	0.087 µM	0.22 µM	–
Cc1ccccc1CN1C(=O)C2=C(CCN(Cc3ccccc3)C2)N2CCN=C12 [TIC10, 11-benzyl-7-[(2-methylphenyl)methyl]-2,5,7,11-tetraazatricyclo[7.4.0.0^2,6]trideca-1 (9),5-dien-8-one, reference compound]	–	–	concentration providing similar reductions in pAkt [1]: 10 uM; Oral Bioavailability (% F) [4]: 1.2 % F; IC50 ([2]; read-out: IC50 (uM, HCT116)): 2.8 µM; AUC(0-inf) (in vivo): 3.1 ng·h/mL; IC50 ([3]; MDA-MB-231, 48 h, read-out: IC50 (uM, MDA 231)): 3 µM

Now from value to molecule, other results behind:

IC50 [2, 5]	IC50 [3, 6]	SMILES	other results
0.082 µM	0.069 µM	C#Cc1cccc(CN2CCC3=C(C2)C(=O)N(Cc2ccc(Cl)cc2)C2=NCCN23)c1 [Compound 4]	Oral Bioavailability (% F) [4]: 33 % F; AUC(0-inf) [4]: 255 ng·h/mL
1.8 µM	0.88 µM	C#Cc1cccc(CN2CCC3=C(C2)C(=O)N(Cc2ccc(OC(F)(F)F)cc2)C2=NCCN23)c1 [Compound 8]	–
0.08 µM	0.12 µM	O=C1C2=C(CCN(Cc3ccccc3)C2)N2CCN=C2N1Cc1ccc(Cl)c(Cl)c1 [Compound 9]	–
0.22 µM	0.22 µM	C#Cc1cccc(CN2CCC3=C(C2)C(=O)N(Cc2ccc(C(F)(F)F)cc2)C2=NCCN23)c1 [Compound 12]	–
0.28 µM	0.28 µM	C#Cc1cccc(CN2CCC3=C(C2)C(=O)N(Cc2ccc(Br)cc2)C2=NCCN23)c1 [Compound 13]	–
0.011 µM	0.024 µM	N#Cc1cccc(CN2CCC3=C(C2)C(=O)N(Cc2ccc(Cl)cc2)C2=NCCN23)c1 [Compound 14]	–
0.007 µM	0.024 µM	N#Cc1cccc(CN2CCC3=C(C2)C(=O)N(Cc2ccc(C(F)(F)F)cc2)C2=NCCN23)c1 [Compound 15]	–
0.023 µM	0.064 µM	O=C1C2=C(CCN(Cc3cccc(F)c3)C2)N2CCN=C2N1Cc1ccc(Br)cc1 [Compound 17]	–
1.8 µM	3.4 µM	C#Cc1ccc(CN2CCC3=C(C2)C(=O)N(Cc2ccc(Cl)cc2)C2=NCCN23)cc1 [Compound 22]	–
0.36 µM	0.61 µM	O=C1C2=C(CCN(Cc3ccc(F)cc3)C2)N2CCN=C2N1Cc1ccc(Br)cc1 [Compound 23]	–
1.7 µM	0.71 µM	O=C1C2=C(CCN(Cc3cccs3)C2)N2CCN=C2N1Cc1ccc(Cl)cc1 [Compound 25]	–
0.57 µM	0.31 µM	O=C1C2=C(CCN(Cc3ccsc3)C2)N2CCN=C2N1Cc1ccc(Cl)cc1 [Compound 26]	–
